Consider four molecules from patent publication US20260315436A1, “METHOD OF TREATING DISORDERS WITH SURF1 MALFUNCTION” (Cure Mito Foundation, priority 2023, published 2026).

Structures are written as SMILES.

The assay concerns shy1Δ knockout mutants. As to the kind of experiment: Yeast drug repurposing screen, shy1Δ knockout mutants (haploid/diploid not separated). The conditions noted are these: FIG. 12, inactive statins; test not named. The class given is cell-based. The text has this: An aim of the present disclosure is to identify SURF1 Leigh Syndrome drug repurposing clinical candidates using a rapid turnaround, multi-species phenotypic screening approach that starts with the development and phenotypic characterization of genetically personalized yeast strains—“patient avatars”—and culminates in a drug repurposing screen, a process previously published for PMM2-CDG in Lao et al., 2019 Feb 7; 9(2):413423. […] Slow growth can be rescued in a pathway-agnostic high-throughput chemical suppressor screen. As in the case of PMM2-CDG, the SURF1 yeast ortholog, gene identifier SHY1, is essential undergrowth conditions that require functional mitochondria, i.e., respiration. The yeast species Yarrowia lipolytica was used for the screen since it is an obligate aerobe (requires oxygen to grow), contains a fully functional electron transport chain, and has already been prototyped in a drug repurposing screen (Perlstein 2020). A 384-well-plate growth-based assay with appropriate positive and negative controls was designed and optimized for a drug repurposing screen (~5,000 compounds). The drug repurposing screen for mitochondrial diseases involving complex IV deficiency is described herein. A general yeast screening method was discussed in Perlstein, Drug repurposing for mitochondrial diseases using a pharmacological model of complex I deficiency in the yeast Yarrowia lipolytica, bioRxiv, (2020), see https://www.biorxiv.org/content/10.1101/2020.01.08.899666v1.
Yeast cells completely lacking SURF1 are unable to grow in conditions that require their mitochondria to produce energy. Knocking out the SURF1 ortholog in yeast—SHY1—results in loss of the ability of the knockout mutant to grow on a non-fermentable carbon source, e.g., lactate or glycerol, that requires functional mitochondria. A shy1Δ knockout mutant is incapable of growing on YEPG, or yeast media spiked with ethanol and glycerol as the sole non-fermentable carbon sources.
A unique hit signature was identified using the pilot screen of ~2,500 known drugs. A drug repurposing screen was performed. BY4741 and BY4742 are wildtype haploid controls, BY4743 is the wildtype diploid control. PY14 and PY15 are haploid shy1Δ knockout mutants of each yeast mating type. PY16 is the diploid SHY1/shy1Δ heterozygous mutant, which grows just like BY4743. PY17 is the diploid homozygous shy1Δ knockout mutant. FIG. 20.
FIG. 22, FIG. 23, FIG. 24A, FIG. 24B. It is thought that the hits act by stabilizing cytochrome c oxidase.
The discernible red triangles are the hits; the larger the triangles, the more statistically significant the result. […] FIG. 25A and FIG. 25B. Haploid and diploid SURF1 deficient mutants were screened. The positive control is a wildtype (unmutated) yeast strain. […]
For the molecule `CC[C@H](C)C(=O)O[C@H]1C[C@@H](C)C=C2C=C[C@H](C)[C@H](CC[C@@H]3C[C@@H](O)CC(=O)O3)[C@H]21` [lovastatin], the activity of statins entry was “inactive”.

As to `CC[C@H](C)C(=O)O[C@H]1CCC=C2C=C[C@H](C)[C@H](CC[C@@H]3C[C@@H](O)CC(=O)O3)[C@H]21` [mevastatin], the activity of statins entry is “inactive”.

For the molecule `CC[C@H](C)C(=O)O[C@H]1C[C@H](O)C=C2C=C[C@H](C)[C@H](CC[C@@H](O)C[C@@H](O)CC(=O)O)[C@H]21` [pravastatin], the activity of statins result was “inactive”.

Take `CCC(C)(C)C(=O)O[C@H]1C[C@@H](C)C=C2C=C[C@H](C)[C@H](CC[C@@H]3C[C@@H](O)CC(=O)O3)[C@H]21` [simvastatin]: the activity of statins result was “inactive”.
